{"source": "patent US12195427B2", "about": "“MASP-2 inhibitors and methods of use” (priority 2018, dated 2025)", "biological_target": "MASP-2 CCP2-SP (Homo sapiens (Human), UniProt O00187)", "sequence (O00187 445-686)": "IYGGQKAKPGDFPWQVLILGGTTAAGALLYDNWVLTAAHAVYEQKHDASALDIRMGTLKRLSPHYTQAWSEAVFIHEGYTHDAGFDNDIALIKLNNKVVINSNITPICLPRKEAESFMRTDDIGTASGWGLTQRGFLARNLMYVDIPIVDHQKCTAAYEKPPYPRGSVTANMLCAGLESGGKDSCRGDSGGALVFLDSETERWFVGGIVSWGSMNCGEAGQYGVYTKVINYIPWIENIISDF", "sequence (O00187 364-432 partner)": "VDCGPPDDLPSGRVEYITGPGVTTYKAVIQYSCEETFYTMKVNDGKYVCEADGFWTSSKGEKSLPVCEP", "assay": "MASP-2 co-crystallization, X-ray crystallography and structure analysis (H-bonds, van der Waals contacts);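 as to Ligand-pharmacophore element distance, pharmacophore element C2: distance from averaged pharmacophore element to bound ligand; missing value means element absent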;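 as to Ligand-pharmacophore element distance, pharmacophore element C3: distance from averaged pharmacophore element to bound ligand; missing value means element absent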;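 as to Ligand-pharmacophore element distance, pharmacophore element C4: distance from averaged pharmacophore element to bound ligand; missing value means element absent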;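 as to Ligand-pharmacophore element distance, pharmacophore element C5: distance from averaged pharmacophore element to bound ligand; missing value means element absent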", "design": "van der Waals contact distance, MASP-2 HIS 483 atom CD2 / van der Waals contact distance, MASP-2 HIS 483 atom NE2 / van der Waals contact distance, SER 654 C to compound atom / van der Waals contact distance, SER 654 O to compound atom / van der Waals contact distance, TRP 655 C to compound atom / van der Waals contact distance, MASP-2 GLY 528 atom CA / van der Waals contact distance TRP 655 atom CZ3 / van der Waals contact distance TRP 655 atom N / van der Waals contact distance TRP 655 atom CE3 / van der Waals contact distance GLY 656 atom C / van der Waals contact distance GLY 656 atom CA / van der Waals contact distance GLY 656 atom O / van der Waals contact distance, MASP-2 TYR 607 atom CD1 / van der Waals contact distance, MASP-2 PRO 606 atom O / d(C3,CA1) / d(CA1,N1)2 / d(H4,O1) / d(H4,O2) / d(O1,O2) / d(CA1,O2) / d(CA6,O1) / d(CA6,O2) / d(CA1,C5) / d(O2,H3) / d(N2,C2) / d(CA5,N2) / d(N2,C4) / d(N2,C6) / d(N2,CA3) / d(N2,O3) / d(O4,H2): unit not given beside the values", "details": "for Ligand-pharmacophore element distance, pharmacophore element C2 / Ligand-pharmacophore element distance, pharmacophore element C3 / Ligand-pharmacophore element distance, pharmacophore element C4 / Ligand-pharmacophore element distance, pharmacophore element C5 / Ligand-pharmacophore element distance, pharmacophore element C6 / Ligand-pharmacophore element distance, pharmacophore element C7 / Ligand-pharmacophore element distance, pharmacophore element CA1 / Ligand-pharmacophore element distance, pharmacophore element CA2 / Ligand-pharmacophore element distance, pharmacophore element CA3 / Ligand-pharmacophore element distance, pharmacophore element CA4 / Ligand-pharmacophore element distance, pharmacophore element CA5 / Ligand-pharmacophore element distance, pharmacophore element CA6: Table A4-1; for a(N1, CA1, O1) b): Methyl-amino-pyridine compounds; for Pharmacophore torsion angle a(O1, O2, N2, CA2): Table A7-2", "source_text": "This example illustrates the preparation of recombinant MASP-2 protein, based on UniProt O00187, human mannan-binding lectin serine protease 2. Expression constructs for human MASP-2 CCP2-SP and CCP2-SP-6HIS were generated for recombinant expression in E. coli cells.\nTypically, crystallization hits were obtained by screening against […] 96-well crystallization reagent kits (GRAS6, GRAS2, Hampton Research; MORPHEUS, Molecular Dimensions; Wizard 1&2 Cryo, Rigaku Reagents) and crystal growth was inspected by optical microscopy. Crystals were used directly or further optimized for X-ray diffraction. Crystals were captured with cryogenic loops and dipped into liquid nitrogen directly or cryoprotected with a 20% glycerol in crystallization formulation before flash-cooling in liquid nitrogen.\nThereafter crystals are transferred once or twice for soaking within the crystallization solution containing the MASP-2 inhibitor.\nCrystals were diffracted with synchrotron X-rays of […] and X-ray diffraction datasets were collected at beamlines SSRL BL9-2, BL14-1, BL12-2 as well as ALS sector 5 using Dectris Pilatus and Eiger detectors. Structures were determined by molecular replacement using portions of the structure 1Q3X as search models and partially refined with Buster 2.10.2 or Refmac 5.8. […] When multiple ligand poses were observed, for instance arising from multiple molecules in the asymmetric unit or refined dual poses within the same molecule, only one pose was selected and analyzed.\nLigPlot+ calls these ‘nonbonded contacts’ or ‘hydrophobic contacts’. Despite the name, there are atom pairings that include possible H-bonds. Thus, in some instances, the Table A2 also contains H-bond interactions.", "key": {"[1]": {"details": "Table A5-1 pharmacophore: distance between elements, S2/S1 region"}, "[2]": {"details": "Table A5-2 pharmacophore distance, S3/S4 region"}, "[3]": {"details": "Table A7-1, between pharmacophore elements of the bound compound"}, "[4]": {"details": "between pharmacophore elements of the bound compound"}, "[5]": {"details": "Table A8-6, nearest protein atom in cell to the left"}}}
{"compound": "C[C@H](NC(=O)[C@H](N)CCc1ccccc1)C(=O)NCc1ccc(N)nc1.Cl.Cl", "note": "[1007_2]", "values": [{"measurement": "Ligand-pharmacophore element distance, pharmacophore element C2", "value": 0}, {"measurement": "Ligand-pharmacophore element distance, pharmacophore element C3", "value": 0}, {"measurement": "Ligand-pharmacophore element distance, pharmacophore element C4", "value": 0}, {"measurement": "Ligand-pharmacophore element distance, pharmacophore element C5", "value": 0}, {"measurement": "Ligand-pharmacophore element distance, pharmacophore element C6", "value": 0}, {"measurement": "Ligand-pharmacophore element distance, pharmacophore element C7", "value": 0}, {"measurement": "Ligand-pharmacophore element distance, pharmacophore element CA1", "value": 0.59}, {"measurement": "Ligand-pharmacophore element distance, pharmacophore element CA2", "value": 0.86}, {"measurement": "Ligand-pharmacophore element distance, pharmacophore element CA3", "value": 0}, {"measurement": "Ligand-pharmacophore element distance, pharmacophore element CA4", "value": 0}, {"measurement": "Ligand-pharmacophore element distance, pharmacophore element CA5", "value": 0}, {"measurement": "Ligand-pharmacophore element distance, pharmacophore element CA6", "value": 0}, {"measurement": "d(CA1,N1)2", "setting": "[1]", "value": 1.38}, {"measurement": "d(CA1,O1)", "setting": "[1]", "value": 4.52}, {"measurement": "d(CA1,O2)", "setting": "[1]", "value": 4.00}, {"measurement": "d(H4,O1)", "setting": "[1]", "value": 3.69}, {"measurement": "d(H4,O2)", "setting": "[1]", "value": 2.76}, {"measurement": "d(O1,O2)", "setting": "[1]", "value": 3.63}, {"measurement": "d(N2,CA2)", "setting": "[2]", "value": 6.11}, {"measurement": "d(O2,H3)", "setting": "[2]", "value": 4.67}, {"measurement": "d(O2,N2)", "setting": "[2]", "value": 2.86}, {"measurement": "a(CA1, O1, O2)", "setting": "Table A6-1 pharmacophore angle", "value": 107.55}, {"measurement": "a(O1, O2, H4)", "setting": "Table A6-1 pharmacophore angle", "value": 113.36}, {"measurement": "a(N1, CA1, O1) b)", "setting": "Table A6-1 pharmacophore angle", "value": 174.22}, {"measurement": "a(O1, O2, H3)", "setting": "Table A6-2 pharmacophore angle", "value": 145.74}, {"measurement": "a(O1, O2, N2)", "setting": "Table A6-2 pharmacophore angle", "value": 133.10}, {"measurement": "a(O2, N2, CA2)", "setting": "Table A6-2 pharmacophore angle", "value": 153.46}, {"measurement": "Pharmacophore torsion angle a(H4, O1, O2, H3)", "setting": "[3]", "value": 47.32}, {"measurement": "Pharmacophore torsion angle a(H4, O1, O2, N2)", "setting": "[3]", "value": 126.25}, {"measurement": "Pharmacophore torsion angle a(N1, CA1, O1, H4)", "setting": "[3]", "value": 48.80}, {"measurement": "Pharmacophore torsion angle a(O1, H4, O2, CA1)", "setting": "[3]", "value": "−94.30"}, {"measurement": "Pharmacophore torsion angle a(O1, O2, N2, CA2)", "setting": "[4]", "value": 131.44}, {"measurement": "Pharmacophore protein distance to MET_658 (first MET_658 column)", "setting": "Table A8-6, 6th residue column, nearest protein atom in cell to the left", "value": 2.59}, {"measurement": "Pharmacophore protein distance to MET_658 (second MET_658 column)", "setting": "Table A8-6, 9th residue column, nearest protein atom in cell to the left", "value": 3.37}, {"measurement": "Pharmacophore protein distance to GLY_528", "setting": "[5]", "value": 3.72}, {"measurement": "Pharmacophore protein distance to PHE_529", "setting": "[5]", "value": 3.20}, {"measurement": "Pharmacophore protein distance to PRO_608", "setting": "[5]", "value": 3.12}, {"measurement": "Pharmacophore protein distance to SER_611", "setting": "[5]", "value": 2.21}, {"measurement": "Pharmacophore protein distance to TRP_655", "setting": "Table A8-6, pharmacophore elements C6, CA3, O3, H1, nearest protein atom in cell to the left", "value": 3.60}]}
{"compound": "Cc1nc(N)ccc1CNC(=O)[C@H](C)NC(=O)[C@H]1C[C@@H](c2ccccc2)CCN1C", "note": "[compound 1441, (2R,4S)—N—((S)-1-(((6-Amino-2-methylpyridin-3-yl)methyl)amino)-1-oxopropan-2-yl)-1-methyl-4-phenylpiperidine-2-carboxamide]", "values": [{"measurement": "H-bond distance to MASP-2 ASP 627 atom OD2", "setting": "Table A1 (H-Bonds), ASP 627 OD2", "value": 3.23}, {"measurement": "H-bond distance to MASP-2 GLY 656 atom N", "setting": "Table A1 (H-Bonds), GLY 656 N", "value": 3.2}, {"measurement": "H-bond distance to MASP-2 SER 628 atom O", "setting": "Table A1 (H-Bonds), SER 628 O", "value": 3.06}, {"measurement": "H-bond distance to MASP-2 SER 654 atom O", "setting": "Table A1 (H-Bonds), SER 654 O", "value": 3.07}, {"measurement": "H-bond distance to MASP-2 SER 657 atom O", "setting": "Table A1 (H-Bonds), SER 657 O", "value": 2.91}, {"measurement": "van der Waals contact distance, MASP-2 amino acid atom to compound atom", "setting": "Table A2", "value": 3.8}, {"measurement": "van der Waals contact distance, MASP-2 HIS 483 atom CD2", "setting": "Table A2-1", "value": 3.74}, {"measurement": "van der Waals contact distance, MASP-2 HIS 483 atom NE2", "setting": "Table A2-1", "value": 3.61}, {"measurement": "van der Waals contact distance, MASP-2 GLY 528 atom CA", "setting": "Table A2-2", "value": 3.71}, {"measurement": "van der Waals contact distance, MASP-2 PHE 529 atom CE1", "setting": "Table A2-3", "value": 3.85}, {"measurement": "van der Waals contact distance, MASP-2 amino acid atom to compound atom", "setting": "Table A2-9, ARG 630, AA atoms CG, CZ", "value": 3.87}, {"measurement": "van der Waals contact distance, VAL 653 CG1 to compound atom", "setting": "Table A2-11", "value": 3.38}, {"measurement": "van der Waals contact distance, SER 654 O to compound atom", "setting": "Table A2-12", "value": 3.85}, {"measurement": "van der Waals contact distance, TRP 655 CA to compound atom", "setting": "Table A2-12", "value": 3.34}, {"measurement": "van der Waals contact distance TRP 655 atom CE3", "setting": "Table A2-13, MASP-2 TRP 655 CE3, compound atom in line below", "value": 3.65}, {"measurement": "van der Waals contact distance TRP 655 atom CZ3", "setting": "Table A2-13, MASP-2 TRP 655 CZ3", "value": 3.75}, {"measurement": "Ligand-pharmacophore element distance, pharmacophore element C2", "value": 0.54}, {"measurement": "Ligand-pharmacophore element distance, pharmacophore element C3", "value": 0.17}, {"measurement": "Ligand-pharmacophore element distance, pharmacophore element C4", "value": 0}, {"measurement": "Ligand-pharmacophore element distance, pharmacophore element C5", "value": 0}, {"measurement": "Ligand-pharmacophore element distance, pharmacophore element C6", "value": 0}, {"measurement": "Ligand-pharmacophore element distance, pharmacophore element C7", "value": 0}, {"measurement": "Ligand-pharmacophore element distance, pharmacophore element CA1", "value": 0.64}, {"measurement": "Ligand-pharmacophore element distance, pharmacophore element CA2", "value": 0.64}, {"measurement": "Ligand-pharmacophore element distance, pharmacophore element CA3", "value": 0}, {"measurement": "Ligand-pharmacophore element distance, pharmacophore element CA4", "value": 0}, {"measurement": "Ligand-pharmacophore element distance, pharmacophore element CA5", "value": 0}, {"measurement": "Ligand-pharmacophore element distance, pharmacophore element CA6", "value": 0}, {"measurement": "d(C3,CA1)", "setting": "[1]", "value": 2.85}, {"measurement": "d(CA1,N1)2", "setting": "[1]", "value": 1.37}, {"measurement": "d(CA1,O1)", "setting": "[1]", "value": 4.27}, {"measurement": "d(CA1,O2)", "setting": "[1]", "value": 3.96}, {"measurement": "d(H4,O1)", "setting": "[1]", "value": 4.29}, {"measurement": "d(H4,O2)", "setting": "[1]", "value": 3.79}, {"measurement": "d(O1,O2)", "setting": "[1]", "value": 3.29}, {"measurement": "d(N2,C2)", "setting": "[2]", "value": 1.45}, {"measurement": "d(N2,CA2)", "setting": "[2]", "value": 5.75}, {"measurement": "d(O2,H3)", "setting": "[2]", "value": 4.15}, {"measurement": "d(O2,N2)", "setting": "[2]", "value": 2.72}, {"measurement": "a(C3, CA1, O1)", "setting": "Table A6-1 pharmacophore angle", "value": 148.89}, {"measurement": "a(CA1, O1, O2)", "setting": "Table A6-1 pharmacophore angle", "value": 108.56}, {"measurement": "a(O1, O2, H4)", "setting": "Table A6-1 pharmacophore angle", "value": 132.47}, {"measurement": "a(N1, CA1, O1) b)", "setting": "Table A6-1 pharmacophore angle", "value": 173.13}, {"measurement": "a(O1, O2, H3)", "setting": "Table A6-2 pharmacophore angle", "value": 145.43}, {"measurement": "a(O1, O2, N2)", "setting": "Table A6-2 pharmacophore angle", "value": 144.23}, {"measurement": "a(O2, N2, C2)", "setting": "Table A6-2 pharmacophore angle", "value": 131.10}, {"measurement": "a(O2, N2, CA2)", "setting": "Table A6-2 pharmacophore angle", "value": 156.32}, {"measurement": "Pharmacophore torsion angle a(C3, CA1, O1, H4)", "setting": "[3]", "value": 21.88}, {"measurement": "Pharmacophore torsion angle a(H4, O1, O2, H3)", "setting": "[3]", "value": 50.54}, {"measurement": "Pharmacophore torsion angle a(H4, O1, O2, N2)", "setting": "[3]", "value": 141.99}, {"measurement": "Pharmacophore torsion angle a(N1, CA1, O1, H4)", "setting": "[3]", "value": "−6.82"}, {"measurement": "Pharmacophore torsion angle a(O1, H4, O2, CA1)", "setting": "[3]", "value": "−80.01"}, {"measurement": "Pharmacophore torsion angle a(O1, O2, N2, C2)", "setting": "[3]", "value": 117.29}, {"measurement": "Pharmacophore torsion angle a(O1, O2, N2, CA2)", "setting": "[4]", "value": 126.16}]}
